Assay results taken from patent US12268724B2, “Methods and compositions for the prevention or treatment of Barth Syndrome” (Stealth BioTherapeutics Inc., priority 2013, dated 2025).
Where no end group is shown, it is not given here. [ ]: non-standard residue; d: D form.

Columns and labels:
mu-opioid receptor = mu-opioid receptor (Homo sapiens, UniProt P35372); test: Mu-opioid receptor agonist activity; details: stated in description, no test described
TAZ1 = TAZ1 mRNA expression in a dog model of heart failure (real-time PCR of LV tissue); type: in vivo; details: dogs with microembolization-induced heart failure, 0.5 mg/kg once daily subcutaneous, three months, saline control 2.25-fold
Method: Twelve dogs were subject to coronary microembolization-induced heart failure (LV ejection fraction ˜30%) as described above in Example 1. Subjects were randomized into D-Arg-2′6′-Dmt-Lys-Phe-NH2-treated and control groups for a three-month trial. Subjects received subcutaneous injections of D-Arg-2′6′-Dmt-Lys-Phe-NH2 (0.5 mg/kg once daily, n=6) or saline (Untreated-HF Control, n=6). RNA was prepared from LV tissue of all subjects at the end of the treatment phase and from the LV of six normal subject controls. Levels of TAZ1 mRNA were determined by real-time PCR. Changes in mRNA levels were expressed as fold reduction using the CT Method, with normalization to a […] (GAPDH) internal control.

mitochondria = test: Electron microscopy of mitochondrial ultrastructure and organization in tissue from cardiac disease subject; type: in vivo
Method: A tissue sample from a subject with Barth Syndrome and tissue samples from a subject with cardiac disease was prepared for electron microscopy imaging of the mitochondria using standards known in the art. […] FIG. 3.

[1] = tested on: plasma membrane of several mammalian cell types; details: cited from earlier work

Sequence of mu-opioid receptor (P35372 whole entry, species assumed): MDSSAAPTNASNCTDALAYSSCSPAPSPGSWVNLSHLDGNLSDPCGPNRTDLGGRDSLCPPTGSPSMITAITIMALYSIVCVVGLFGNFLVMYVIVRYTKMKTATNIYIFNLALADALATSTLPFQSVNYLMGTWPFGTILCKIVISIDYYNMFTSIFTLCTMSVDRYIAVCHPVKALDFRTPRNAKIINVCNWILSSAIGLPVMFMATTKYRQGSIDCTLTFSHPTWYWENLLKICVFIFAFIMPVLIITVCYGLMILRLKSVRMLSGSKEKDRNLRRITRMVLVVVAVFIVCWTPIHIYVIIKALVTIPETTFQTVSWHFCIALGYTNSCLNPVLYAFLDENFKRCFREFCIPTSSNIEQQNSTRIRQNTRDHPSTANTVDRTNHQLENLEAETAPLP

Substance | mu-opioid receptor agonist activity (mu-opioid receptor) | decrease in TAZ1 mRNA relative to normal subjects (fold reduction, CT Method, normalized to GAPDH) (TAZ1) | ultrastructure of the mitochondria (electron microscopy) (mitochondria; cardiac disease subject treated with an effective amount, FIG. 4A vs 4B) | organization of the mitochondria (electron microscopy) (mitochondria; tissue from treated vs not treated cardiac disease subject, FIGS. 5A-5B) | penetration of the plasma membrane [1]
Tyr-D-Arg-Phe-Lys-NH2 | has mu-opioid receptor agonist activity | – | – | – | –
D-Arg-2′6′-Dmt-Lys-Phe-NH2 | does not have mu-opioid receptor agonist activity | 1.23 fold | ameliorated the abnormal features of the ultrastructure of the mitochondria | improved organization of the mitochondria | –
2′, 6′-Dmt-D-Arg-Phe-Lys-NH2 | – | – | – | – | readily penetrates the plasma membrane of several mammalian cell types in an energy-independent manner
F[dR]FK-NH2 | does not have mu-opioid receptor agonist activity | – | – | – | –
